PMC11672137, “High-Affinity Lectin Ligands Enable the Detection of Pathogenic Pseudomonas aeruginosa Biofilms: Implications for Diagnostics and Therapy” (JACS Au, 2024)

Columns and labels:
LecB (PAO1) = molecular target: T1, LecB (PAO1) (Pseudomonas aeruginosa, UniProt Q9HYN5); experiment: Direct binding assay based on fluorescence polarization, titration with LecB
T1 construct: made in house
Method: Averages and standard deviations were determined from at least three independent titrations of technical triplicates each.
(§1) Direct binding affinity determination of LecA and LecB imaging probes was performed with direct titration of protein and imaging probes in TBS/Ca2+ buffer. Protein dilution series was prepared in 96 well plates and 10 µL of each dilution in triplicates were mixed with 10 µL of fluorescent compound (20 nM) in 384-well microtiter plates (Greiner Bio-One, Germany, cat no 781900). The plates were centrifuged (1 min, 500 g), sealed and incubated for 2 h in dark wet chamber under gentle shaking. Fluorescence was measured on a PheraStar FS plate reader (BMG Labtech GmbH, Germany) with excitation filters at 485 nm and emission filters at 535 nm. The data were analysed with MARS Data Analysis Software (BMG Labtech GmbH, Germany) to calculate Kd values.

[1] = system: P. aeruginosa PAO1 biofilm aggregates; experiment: In vitro biofilm staining under static conditions (CLSM); type: cell-based, Pseudomonas aeruginosa; settings: 10 μM probe
Method: The ability of LecA- and LecB-targeting probes to image P. aeruginosa biofilms was evaluated in vitro. P. aeruginosa PAO1, constitutively expressing mCherry from plasmid pMP7605,[56] was cultivated in microtiter plates under shaking conditions to form biofilm aggregates, as reported previously.[43] Fluorescein-carbohydrate conjugates were added to the bacterial culture to reach a final concentration of 10 μM and biofilms were analyzed by confocal laser scanning microscopy (CLSM) under static conditions (Figures 2 and S4). […] To our surprise, the intended negative control xyloside 8 also stained the P. aeruginosa biofilms (Figures 2C and S4). In all cases, the green signal originating from the fluorescein conjugates was not homogeneously spread over the entire structure of the biofilm aggregates, but a certain heterogeneity was observed across biofilm regions as bright spots. Further, the intensity of staining varied between replicates (see the Supporting Information for individual experiments). […] Instead, only a very faint green shadow was detected for 9 indicating its suitability as a negative control. Thus, the observed biofilm staining with imaging probes 2, 3, 6, 7 and also xyloside 8 was carbohydrate dependent and while 2, 3 and 6, 7 are ligands of LecA and LecB, respectively, the molecular mechanism of xyloside 8 remains elusive.
One representative image of stained aggregates is shown. […] Scale bar = 50 μm.
P. aeruginosa PAO1 expressing the red fluorescent protein mCherry (pMP7605)23 was selected for this study. For this, P. aeruginosa PAO1 (DSM 19880, Braunschweig, Germany) was transformed with the mCherry plasmid (pMP7605).23 Bacteria were stored at -80 °C. For experimental use, bacteria were streaked on lysogeny broth (LB) agar (1% tryptone, 1% NaCl, 0,5% yeast extract, 1.3% agar) containing 60 µg/mL gentamicin (Gm) and incubated at 37 °C overnight. For liquid cultures, bacterial colonies were transferred from LB agar to 10 mL LB (1% tryptone, 1% NaCl, 0,5% yeast extract) containing 60 µg/mL Gm and incubated at 37 °C and 180 rpm overnight. For exponential growth, 10 mL of LB containing 60 µg/mL Gm were inoculated with P. aeruginosa PAO1 mCherry (pMP7605)23 using an overnight liquid culture […]
In vitro biofilm staining under static conditions
Biofilm staining experiments were performed in analogy to Wagner et al. with P. aeruginosa PAO1 pMP7605 (Figure S4).23,24 Bacterial overnight cultures were inoculated from single colonies in 5 mL LB supplemented with gentamicin (120 µg/mL) and grown at 37 °C and 180 rpm. The bacterial overnight cultures were then diluted to OD600 of 0.02 with LB and 500 µL of culture per well were transferred to 24-well plate (24CG, Art. No. 5231 or 24FC, Art. No. 3231). The biofilm was grown under shaking conditions (180 rpm) at 37 °C for 20–24 h. Biofilm aggregates were visualized using a confocal laser scanning microscope (Leica TCS Sp8 CLSM) using a 25× numerical-aperture water objective. Z-stacks (463 x 463 μm) were recorded every 2 μm for mCherry (ex.: 561 nm, red) and for fluorescein containing imaging compounds (ex.: 488 nm, green). […]
Maximum Intensity Projections (contrast range automatically adjusted by Imaris). Only one staining experiment was carried out for imaging probes 4 and S26, all other fluorescein conjugates were analyzed in at least three independent experiments.

[2] = system: P. aeruginosa PAO-infected murine lung sections; experiment: CLSM of lung sections of infected and uninfected mice; type: in vivo; settings: after i.v. injection
Method: For more detailed insights into the localization of divalent LecA ligand 21 and the control Sulfo-Cyanine7, lung sections of infected and uninfected mice were prepared and analyzed by CLSM. […] Signals corresponding to 21 were localized in cellular accumulations around medium-sized blood vessels. Particle-shaped signals and signals clustered into larger dots were observed. […] Possibly, signals detected in lung sections stained with a divalent LecA imaging probe are due to complexes of membrane-bound LecA with 21. These particle-shaped complexes probably represent the divalent imaging probe 21 bound to bacterial cells. Additionally, it is possible that larger dots are attributed to accumulated bacteria in phagocytes such as neutrophils, monocytes, and dendritic cells. However, intracellular detection using the divalent LecA imaging probe 21 has not yet been analyzed and requires further experiments.
Figure 7 Confocal laser scanning microscopy analysis of P. aeruginosa PAO-infected murine lung sections using divalent LecA imaging probe 21. Sections of cryopreserved murine lungs infected with P. aeruginosa were prepared and analyzed by CLSM after intravenous injection of divalent LecA imaging probe 21 (A) or the control Sulfo-Cyanine7 free acid (B). Lung sections of uninfected animals were used as a control after i.v. injection of 21 (C) or control Sulfo-Cyanine7 free acid (D). Cell nuclei are shown in red (DAPI) and green signals correspond to 21 or Sulfo-Cyanine7 free acid, respectively. Green signals were detected only in infected lung sections after injection of divalent LecA ligand 21. Signals were located in cellular accumulations around medium-sized blood vessels. Scale bar for A and B = 100 μm and for C and D = […]. […]
Lung sections and ex vivo imaging of P. aeruginosa
Sections of 8 µm were made from the frozen lung lobes using a cryostat (Leica, Germany). The sections were mounted on adhesive slides, dried overnight at room temperature and mounted with a DAPI containing gel. Confocal imaging was performed on a Leica SP8 […]
system equipped with a super -continuum white light laser (WLL) and a multi - photon laser source (MP) through a water immersion objective (Leica HC FLUOTAR L 25x/1,0 with a motorized correction ring). Images (1024x1024 pixels) were acquired using the MP excitation of 720 nm and emission band ([…]) for detecting DAPI and the WLL at 730 nm excitation with an emission band 748 nm – 848 nm for Cyanine7 employing non-descanned or descanned HyD detectors, respectively. Further image analysis and image overlay was performed in ImageJ2 software.27 […]

LecA = molecular target: T2, LecA (Pseudomonas aeruginosa, UniProt Q05097); experiment: Direct binding assay based on fluorescence polarization, titration with LecA; settings: negative controls
T2 construct: made in house
Method: The binding affinities of imaging probes 2–4 for LecA were determined using a direct binding assay based on fluorescence polarization (FP).[47]
(A, C) Monovalent LecA imaging probes 2–4 based on phenyl β-D-galactoside (1) were titrated with LecA. […] (E) Xyloside-fluorescein conjugate (8) and azido fluorescein (9) served as negative controls in titrations with LecA and LecB, respectively. Averages and standard deviations were determined from at least three independent titrations of technical triplicates each.
as §1

[3] = system: P. aeruginosa PAO (DSM 1707) lung infection; experiment: Optical in vivo imaging and ex situ organ analysis in acute P. aeruginosa airway infection model; set-up: species or system mice
Method: Encouraged by the high affinity of the imaging probes and their ability to stain P. aeruginosa biofilms in vitro, we further investigated the compounds in vivo using an acute P. aeruginosa airway infection model in mice. Intratracheal administration of P. aeruginosa PAO (DSM 1707) results in a local infection that is mainly restricted to the lungs. With the infection dose of 2 × 10^6 cfu/50 μL chosen here, the number of bacteria peaks at 6 h after infection before the host immune system clears the bacteria.[70]
Then, imaging probes, divalent LecA-targeting probe 21, LecB-targeting probe 22 and the control sulfo-Cy7 (free acid), were administered intravenously to the tail vein 2 h post infection. […] This accumulation in the lungs was then confirmed by a subsequent ex vivo analysis of the organs.
Figure 6 Optical in vivo imaging in mice and ex situ analysis of organs with P. aeruginosa PAO acute lung infection. In vivo imaging of mice with P. aeruginosa intratracheal infection (right) or uninfected control mice (left) after intravenous administration of imaging probes 2 h post infection: (A) 50 nmol/20 g divalent LecA probe 21 or (B) 100 nmol/20 g LecB probe 22. Then, explanted lungs were analyzed for fluorescence intensity, shown as a false color scale in (C) divalent LecA probe 21 (left: uninfected, right: infected) and (D) LecB probe 22 (left: uninfected; middle: uninfected control without dye; right: infected). (E) Quantification of the average radiant efficiency of the divalent LecA ligand 21 and the control sulfo-Cy7 free acid in the lungs of uninfected and infected mice. Duplicate data points and the mean are depicted. (F) Average radiant efficiency was quantified for the LecB imaging probe 22 in lungs of infected and uninfected mice. In addition, (G) further mouse organs were explanted after i.v. injection of 21 (50 nmol/20 g) or control sulfo-Cy7 free acid (50 nmol/20 g) and imaged. Organs of uninfected (left), infected (right) mice, and uninfected mice without any dye (upper middle on the sulfo-Cy7 free acid rows) were compared. Fluorescence intensities are shown as false color pictures. […]
Lung infection model and in vivo imaging of P. aeruginosa
C57BL/6J and albino (Tyrc2J) C57BL/6 mice were bred and housed at the Central Animal Facility, Hannover Medical School, Germany. Animal experiments were performed with permission number: 33.9-42502-04-16/2072 from the Lower Saxony State Office for Consumer Protection and Food Safety (LAVES), Germany. Mice were anesthetized with 3% isoflurane (CP Pharma) and infected intratracheally with 2x10^6 cfu/50 µL of P. aeruginosa PAO (DSM1707, Braunschweig, Germany) as described previously.26
50 – 100 nmol sulfo-Cyanine7-compound (divalent LecA probe 21; LecB probe 22; control sulfoCy7 free acid, CAS no.: 2104632-30-4, Lumiprobe; control sulfoCy7 azide, 20, Lumiprobe) per 20 g mouse was injected intravenously 2 h after infection. Optical imaging was performed 4 – 7 h after compound administration. Mice were anesthetized with 3% isoflurane […]
an in vivo imaging system (IVIS SpectrumCT, PerkinElmer). Subsequently mice were euthanized and organs were imaged (675/760 nm) ex situ individually. To enhance Cyanine7 specific fluorescent signal spectral unmixing was performed on in vivo images using LivingImage 4.7 (PerkinElmer). […]

T1 sequence (Q9HYN5 entry or part of it): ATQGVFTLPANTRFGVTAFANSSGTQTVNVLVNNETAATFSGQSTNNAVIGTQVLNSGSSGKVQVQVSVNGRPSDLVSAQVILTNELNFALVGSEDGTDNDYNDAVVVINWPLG
T2 sequence (Q05097 whole entry): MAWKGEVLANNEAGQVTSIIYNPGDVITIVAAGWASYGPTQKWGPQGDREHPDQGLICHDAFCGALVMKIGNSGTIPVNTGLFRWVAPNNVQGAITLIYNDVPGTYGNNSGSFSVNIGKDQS

Structure (SMILES) | Kd (LecB (PAO1)) [nM] | Staining of biofilm aggregates [1] | Cyanine7 signals in lung sections, infected mice [2] | Cyanine7 signals in lung sections, uninfected mice [2] | other results
C[C@@H]1O[C@H](CNS(=O)(=O)c2ccc(-c3cn(CCOCCOCCOCCNC(=S)Nc4ccc5c(c4)C(=O)OC54c5ccc(O)cc5Oc5cc(O)ccc54)nn3)s2)[C@@H](O)[C@H](O)[C@@H]1O [compound 6] | 1650 ± 140 | accumulated at the biofilm aggregates, although with weaker staining | – | – | –
C[N+]1=C(C=CC2=CC(=CC=C3N(CCCCCC(=O)O)c4ccc(S(=O)(=O)[O-])cc4C3(C)C)CCC2)C(C)(C)c2cc(S(=O)(=O)[O-])ccc21.[Na+] [Sulfo-Cyanine7, reference compound] | – | – | no signals were detected | no signals were detected | –
O=C1OC2(c3ccc(O)cc3Oc3cc(O)ccc32)c2ccc(NC(=S)NCCOCCOCCOCCn3cc(CNc4ccc(S[C@@H]5OC[C@@H](O)[C@H](O)[C@H]5O)cc4)nn3)cc21 [compound 8] | – | also stained | – | – | Binding to LecB in direct FP titration (LecB (PAO1); negative control): inability to bind; Binding to LecA in direct FP titration (LecA): inability to bind
C[C@@H]1O[C@H](CNS(=O)(=O)c2ccc(OCc3cn(CCOCCOCCOCCNC(=S)Nc4ccc5c(c4)C(=O)OC54c5ccc(O)cc5Oc5cc(O)ccc54)nn3)cc2)[C@@H](O)[C@H](O)[C@@H]1O [compound 7] | 840 ± 110 | accumulated at the biofilm aggregates, although with weaker staining | – | – | –
CN1/C(=C/C=C2C=C(/C=C/C3=[N+](CCCCCC(=O)NCCCn4cc(CCN(Cc5ccc(NC(=O)CCc6ccc(O[C@@H]7O[C@H](CO)[C@H](O)[C@H](O)[C@H]7O)cc6)cc5)Cc5ccc(NC(=O)CCc6ccc(O[C@@H]7O[C@H](CO)[C@H](O)[C@H](O)[C@H]7O)cc6)cc5)nn4)c4ccc(S(=O)(=O)[O-])cc4C3(C)C)CCC/2)C(C)(C)c2cc(S(=O)(=O)O)ccc21 [compound 21] | – | – | Cyanine7 signals were exemplarily visible | no signals were detected | Average fluorescence radiant efficiency of explanted lungs ([3]; ex vivo analysis of organs, infected vs uninfected mice): elevated compared with uninfected mice; Cyanine7 signal in lung area, optical in vivo imaging ([3]; i.v. 2 h post infection, infected vs uninfected mice, 21 50 nmol/20 g, 22 100 nmol/20 g): elevated Cyanine7 signals in the area of the lung of infected mice compared to uninfected mice; Fluorescence ex vivo in kidneys ([3]; infected vs uninfected animals): moderately increased signals compared to uninfected animals; Fluorescence ex vivo in lungs of uninfected animals compared to control sulfo-Cyanine7 (free acid) ([3]; uninfected mice, ex vivo quantification): a certain accumulation in the lungs of uninfected animals
